Values joined by “and” are separate entries in the source; they are usually repeats but may differ in a detail not shown here. Equal entries are not always repeated. “Also recorded” adds a separate entry of the source. A value given as a limit tells only on which side of the number the result lay.

The values below come from patent US20010051646A1, “Method for the improvement of islet signaling in diabetes mellitus and for its prevention” (priority 2000, published 2001).

In series [1] the test system is Male Zucker fa/fa rats. The series is described as follows: Day-night profile of glycemia and insulinemia, day 16 to day 17 of treatment. It is filed as in vivo, rat. As for the experimental part:
The parameters monitored were morning blood glucose and plasma insulin levels. […] An OGTT was performed finally on day 21 to monitor blood glucose and plasma insulin kinetics to assess changes in glucose tolerance. Glibenclamide (DAB 1996; R011150/33372) was donated by Berlin-Chemie (Berlin, Germany). Male Zucker (fa/fa) rats of the body weight class of 300 g were purchased from Charles River (Sulzfeld, Germany). […] Thereafter, the non-diabetic Wistar rats were treated orally once daily with RP (5 mg/kg b.w.) or TP (21.61 mg/kg b.w.) and the diabetic Zucker rats were treated orally once daily with RP (1 mg/kg b.w.) or TP (21.61 mg/kg b.w.) for 21 days at 05.00 p.m. (before regular food intake in the dark phase). The controls were given 1% cellulose solution orally (5 ml/kg). […] The oral drug therapy was continued for one week. […] Blood glucose: Glucose levels were measured using the glucose oxidase procedure (Super G Glukosemeβgerät; Dr. Müller Gerätebau, Freital, Germany). Plasma insulin: Insulin concentrations were assayed by the antibody RIA method (LINCO Research, Inc. St. Charles, Mo., USA).

The test system of series [2] is Male Zucker fa/fa rats. In words: OGTT after 21 days treatment: blood glucose and plasma insulin. It is filed as in vivo, rat. Here is the method: The parameters monitored were morning blood glucose and plasma insulin levels. […] An OGTT was performed finally on day 21 to monitor blood glucose and plasma insulin kinetics to assess changes in glucose tolerance. Glibenclamide (DAB 1996; R011150/33372) was donated by Berlin-Chemie (Berlin, Germany). Male Zucker (fa/fa) rats of the body weight class of 300 g were purchased from Charles River (Sulzfeld, Germany). Repeated Dosing: 30 male non-diabetic Wistar and 30 male diabetic Zucker rats were randomized to RP (Reference Product: glibenclamide)-, TP- (jest Product: […] Thereafter, the non-diabetic Wistar rats were treated orally once daily with RP (5 mg/kg b.w.) or TP (21.61 mg/kg b.w.) and the diabetic Zucker rats were treated orally once daily with RP (1 mg/kg b.w.) or TP (21.61 mg/kg b.w.) for 21 days at 05.00 p.m. (before regular food intake in the dark phase). The controls were given 1% cellulose solution orally (5 ml/kg). […] The oral drug therapy was continued for one week. […] OGTT: A final OGTT was performed on day 21 with blood sampling from the tail vein. […] The latter were immediately centrifuged and the plasma fractions were stored at −20 ° C. for insulin analysis. Blood glucose: Glucose levels were measured using the glucose oxidase procedure (Super G Glukosemeβgerät; Dr. Müller Gerätebau, Freital, Germany). Plasma insulin: Insulin concentrations were assayed by the antibody RIA method (LINCO Research, Inc. St. Charles, Mo., USA).

Series [3] concerns the target T1, PepT1 intestinal peptide transporter (Homo sapiens, UniProt P46059).
T1 sequence (P46059 1-708): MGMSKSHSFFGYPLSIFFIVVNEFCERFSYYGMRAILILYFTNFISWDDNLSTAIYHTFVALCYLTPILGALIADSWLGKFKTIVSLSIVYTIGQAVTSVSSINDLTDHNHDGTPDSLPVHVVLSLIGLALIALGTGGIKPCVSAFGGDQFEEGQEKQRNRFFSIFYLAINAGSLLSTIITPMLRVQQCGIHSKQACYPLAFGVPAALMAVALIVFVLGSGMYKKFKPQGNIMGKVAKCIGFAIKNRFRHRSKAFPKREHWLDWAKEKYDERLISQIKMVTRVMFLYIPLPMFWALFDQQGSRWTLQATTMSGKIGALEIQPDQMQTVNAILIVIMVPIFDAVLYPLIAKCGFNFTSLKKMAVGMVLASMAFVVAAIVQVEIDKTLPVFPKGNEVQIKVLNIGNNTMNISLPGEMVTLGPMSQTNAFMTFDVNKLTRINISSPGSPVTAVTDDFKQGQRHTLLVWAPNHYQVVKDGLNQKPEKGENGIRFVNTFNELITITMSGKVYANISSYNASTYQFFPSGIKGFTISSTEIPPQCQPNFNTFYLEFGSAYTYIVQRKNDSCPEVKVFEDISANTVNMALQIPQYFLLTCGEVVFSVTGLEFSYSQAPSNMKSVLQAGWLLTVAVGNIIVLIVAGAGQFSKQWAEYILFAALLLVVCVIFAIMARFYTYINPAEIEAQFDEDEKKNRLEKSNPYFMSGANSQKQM
The series is described as follows: Active transport through the intestinal mucosa.

“isoleucyl thiazolidine hemifumarate [P32/98]”: the “Mean blood glucose, day-night profile” value in the series with Male Zucker fa/fa rats [1] (02.00 p.m. next day, RP 1 mg/kg, TP 21.61 mg/kg orally once daily) turned out to be 5.51 ± 0.19 mmol/L; in the series on Male Zucker fa/fa rats [1] (08.00 a.m., TP 21.61 mg/kg orally once daily) it was 5.64 ± 0.23 mmol/L; with Male Zucker fa/fa rats [1] (11.00 a.m., RP 1 mg/kg, TP 21.61 mg/kg orally once daily), 5.33 ± 0.14 mmol/L; in the series with Male Zucker fa/fa rats [1] (11.00 p.m., RP 1 mg/kg, TP 21.61 mg/kg orally once daily), 8.34 ± 0.47 mmol/L; with Male Zucker fa/fa rats [1] (day 16, 05.00 p.m. before drug application, RP 1 mg/kg, TP 21.61 mg/kg orally once daily), 5.25 ± 0.16 mmol/L. For the same substance, the “Plasma insulin, day-night profile” value is 24.3 ± 3.7 ng/mL in the series on Male Zucker fa/fa rats [1] (02.00 p.m. the next day); 57.1 ± 8.6 ng/mL in the series on Male Zucker fa/fa rats [1] (05.00 a.m. (maximum)); “significantly lower than in the RP” in the series on Male Zucker fa/fa rats [1] (05.00 p.m., RP 1 mg/kg, TP 21.61 mg/kg orally once daily); 41.9 ± 8.5 ng/mL with Male Zucker fa/fa rats [1] (08.00 p.m.). Moreover, the “Increase of glycemia from 05.00 p.m. to 11.00 p.m.” value in the series on Male Zucker fa/fa rats [1] (day 16) is recorded as “about 3 mmol/l”. The “Individual blood glucose values, range” value in the series with Male Zucker fa/fa rats [1] (day 16, 05.00 p.m.) is 4.34 to 6.07 mmol/L. In addition, the “Blood glucose in the day-night profile” value in the series with Male Zucker fa/fa rats [1] (given once daily) was less than 8.3 mmol/L. The “Economization (saving) of insulin compared to the control” value in the series on Male Zucker fa/fa rats [1] (obese Zucker rat, subchronic treatment) came out at 45%. Besides, the “Glycemia at the last drug application” value in the series with Male Zucker fa/fa rats [2] (05.00 p.m., night before day 21) is 5.75 ± 0.23 mmol/L. The “G-AUC in comparison to the placebo application” value with Male Zucker fa/fa rats [2] (day 21) was “did not increase”. The “Mean blood glucose curve in the OGTT versus controls” value in the series on Male Zucker fa/fa rats [2] (day 21) is “not different from that of the controls”. Moreover, the “Blood glucose during OGTT” value in the series on Male Zucker fa/fa rats [2] (day 21, 50 min) was 14.54 ± 0.65 mmol/L; in the series with Male Zucker fa/fa rats [2] (day 21, 120 min), 10.67 ± 0.62 mmol/L. The “Glycemia after overnight fasting (basal, before OGTT)” value in the series on Male Zucker fa/fa rats [2] (day 21, morning (07.30 a. m.)) came to 4.88 ± 0.13 mmol/L. For the same substance, the “Fasting plasma insulin at the beginning of the OGTT” value in the series with Male Zucker fa/fa rats [2] (day 21, overnight fasting, listed as TP) is 9.3 ± 1.5 ng/mL and ~9 ng/mL. In addition, the “Plasma insulin after a glucose stimulus” value in the series with Male Zucker fa/fa rats [2] (day 21 OGTT) is reported as “remained mostly unchanged”. For the same substance, the “Glucose area under the curve (G-AUC0-120 min)” value in the series on Male Zucker fa/fa rats [2] (day 21 OGTT, CO-group 823±41) came to 895 ± 50 mmol·min/L. Further, the “I-AUC0-120 min compared with the other groups” value with Male Zucker fa/fa rats [2] (day 21 OGTT, listed as TP) was “lower than in the CO- or RP-groups (NS); also recorded: slightly lower”. The “Transport via the PepT1 intestinal peptide transporter” value in series [3] is on record as “actively transported”.
